This is an account of results in the SangsterLogP compilation.

This data set in a line: method code SF-AS, from DOI: 10.1248/cpb.30.4175, PMID: 7165882.
For `CN(C)C(=O)OCc1ccc(OCc2ccccc2)cc1`, the logP is 3.27.
Take `CN(C)C(=O)OCc1ccc([N+](=O)[O-])cc1`: the logP was determined as 1.95.
To `CN(C)C(=O)OCc1ccc(I)cc1` belongs 3.32; to `COc1ccc(COC(=O)N(C)C)cc1`, 2.2.
In turn, `CN(C)C(=O)OCc1ccccc1` gave a logP of 2.16.
To `Cc1ccc(COC(=O)N(C)C)cc1` belongs 2.63; to `CN(C)C(=O)OCc1ccc(Cl)cc1`, 2.93; to `CN(C)C(=O)OCc1ccc(C#N)cc1`, 1.67.
`COc1cccc(COC(=O)N(C)C)c1` registered a logP of 2.09.
Regarding `CN(C)C(=O)OCc1cccc(Cl)c1`, the logP amounted to 2.82.
To `CN(C)C(=O)OCc1ccc(Br)cc1` belongs 3.01; to `CN(C)C(=O)OCc1ccc(OC(=O)N(C)C)cc1`, 1.59.
To `CN(C)C(=O)OCc1ccc(F)cc1` belongs 2.3.

One may read the logP as a log measure of how a compound divides between an organic and an aqueous phase. A high value points to higher lipophilicity.
